Assay results reported in US20240197805A1, “COMPOSITE FOR RELIEVING […], PREPARATION METHOD THEREFOR, USE THEREOF, DRUG, FOOD AND HEALTH-CARE PRODUCT” (INFINITUS ( CHINA ) COMPANY LTD., priority 2022, published 2024).

What was measured:
Assay type in all cases: in vivo
[1] = tested on: ICR mice; test: Pentobarbital sodium subthreshold dose hypnosis test; conditions: mice gavaged 14 days (250 mg/kg samples; GABA 100 mg/kg); pentobarbital sodium 30 mg/kg BW i.p.; animals asleep within 30 min; *p<0.05, **p<0.01 vs blank group
Excerpt: (§1) • 1. Principle: a pentobarbital sodium subthreshold dose hypnosis test, a sleep latency test and a sleep extension time change test are common test methods for a sleep improvement performance of a health-care food. The method takes a disappearance of a righting reflex as an observation index and is specifically represented as follows: when a mouse is placed on the back to lie, if the mouse cannot turn over for more than 60 s, the righting reflex is considered to disappear, and the mouse falls sleep; if a body position can be righted immediately (within 5 s), the righting reflex is considered to be recovered and the mouse is in a waking state; and a time from the disappearance of the righting reflex to the recovery is an animal sleeping time. • 2. Materials: ICR mice come from the Experimental Animal Center of Zhejiang Academy of Medical Sciences and have the production license number of SCXK (Zhe). The mice are all male, weigh 18 to 22 g and are divided into 10 mice/group. The mice are adapted to the environment in an SPF animal room for 5 to 7 days, wherein environment conditions of the SPF animal room are as follows: a temperature of 20 to 26° C., a humidity of 40% to 70%, and light and shade alternation time of 12 h/12 h. • 3. […]

[2] = tested on: ICR mice; test: Sleep latency experiment (pentobarbital sodium); conditions: mice gavaged 14 days (250 mg/kg samples; GABA 100 mg/kg); pentobarbital sodium 200 mg/kg BW i.p.; *p<0.05 vs blank group
Excerpt: as §1

[3] = tested on: ICR mice; test: Sleep extension time change experiment (pentobarbital sodium); conditions: mice gavaged 14 days (250 mg/kg samples; GABA 100 mg/kg); pentobarbital sodium 30 mg/kg BW i.p.; *p<0.05, **p<0.01 vs blank group
Excerpt: as §1

NCCCC(=O)O [Positive control, y-aminobutyric acid]
Sleeping rate [1]: 90.00** %
Sleep latency x ± s [2]: 5.60 ± 1.48* min
Sleeping time x ± s [3]: 92.36 ± 16.67** min
